The values that follow come from patent US12570675B2, “Boronic acid compounds” (LG CHEM, LTD., priority 2020, dated 2026).

Test [1] addresses Proteasome caspase-like activity (S26 protein from RPMI8226 cells) (Homo sapiens (Human), UniProt P28072). Put plainly: Proteasome caspase-like activity inhibition (Z-Leu-Leu-Glu-AMC fluorogenic substrate, RPMI8226 cell extract). The test is classed as biochemical. The conditions noted are these: S26 protein from RPMI8226 cell extract 2 ug/well, substrate 20 uM, 37° C., 90 minutes. As to the method:
The abilities to inhibit the proteasome activity of the compounds described in the Examples of the present invention and boronic acid drugs were evaluated as follows.
RPMI8226 cells, which is a multiple myeloma cell line, were cultured and then separated by a centrifuge, and washed twice with phosphate buffered saline (PBS). 20 mM of a tris-HCl (pH 8.0) buffer solution was added to the washed cells, and the cells were disrupted by a homogenizer and centrifuged to obtain S26 protein from the supernatant. Suc-Leu-Leu-Val-Tyr-AMC, for a fluorogenic substrate for the chymotrypsin-like activity of the proteasome, and Z-Leu-Leu-Glu-AMC, for a fluorogenic substrate for the caspase-like activity, were purchased from Calbiochem, EMD Millipore and used. Into each well of a 96-well plate (opaque, black round bottom), 20 ul of the S26 protein (final RPMI8226 cell extract concentration: 2 ug/well), 10 ul of S26 proteasome inhibitor serially diluted from 10 uM (final DMSO concentration: 0.5%), and 20 ul of the fluorogenic substrate for the proteasome chymotrypsin-like or caspase-like activity (final concentration: 20 uM) were added and mixed and allowed to react in a 37° C. incubator for 90 minutes. The fluorescence of the fluorogenic substrate was measured by FlexStation II Fluorometer (Molecular Devices). The fluorescence inhibited by the compound diluted at each concentration was measured as the relative percentage value for the amount obtained from the treatment only with the S26 protein and the fluorogenic substrate. IC50 (inhibitory concentration 50) was expressed in terms of a concentration that inhibits 50% of the maximum fluorescence induced by the fluorogenic substrate.

The target of test [2] is Proteasome chymotrypsin-like activity (S26 protein from RPMI8226 cells) (Homo sapiens, UniProt P28074). Format: biochemical. The settings on record: S26 protein from RPMI8226 cell extract 2 ug/well, substrate 20 uM, 37° C., 90 minutes; read-out: Proteasome chymotrypsin-like activity inhibition IC50. The procedure, abridged: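 Inhibition is measured in crude proteasome (S26) from RPMI8226 cells at 2 ug/well, using 20 uM substrate specific to each activity: Suc-LLVY-AMC for chymotrypsin-like, Z-LLE-AMC for caspase-like. Compounds span a dilution series from 10 uM.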
Proteasome chymotrypsin-like activity (S26 protein from RPMI8226 cells), sequence (P28074 60-263 limits assumed): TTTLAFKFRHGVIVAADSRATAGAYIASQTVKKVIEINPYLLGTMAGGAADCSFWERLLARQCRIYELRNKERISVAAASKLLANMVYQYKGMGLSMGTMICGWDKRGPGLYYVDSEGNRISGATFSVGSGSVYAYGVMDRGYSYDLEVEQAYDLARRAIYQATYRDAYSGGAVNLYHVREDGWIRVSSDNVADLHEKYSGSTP

By IC50 is commonly meant the concentration that gives 50% inhibition.

Proteasome caspase-like activity (S26 protein from RPMI8226 cells), sequence (P28072 whole entry): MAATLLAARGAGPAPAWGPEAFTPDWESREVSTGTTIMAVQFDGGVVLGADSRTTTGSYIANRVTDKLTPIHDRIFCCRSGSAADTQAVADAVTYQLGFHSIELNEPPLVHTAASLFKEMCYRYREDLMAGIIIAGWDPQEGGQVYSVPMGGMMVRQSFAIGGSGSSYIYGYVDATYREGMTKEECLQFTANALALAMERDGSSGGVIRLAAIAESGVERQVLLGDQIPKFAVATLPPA

`CC(C)[C@H](NC(=O)C1(Cc2ccccc2)CC(CNC(=O)c2ccccc2)=NO1)B(O)O` (stereo partly drawn) [Example 294, ((1R)-1-(3-(benzamidomethyl)-5-benzyl-4,5-dihydroisoxazol-5-carboxamido)-2-methylpropyl)boronic acid]: the IC50 was greater than 1000 nM in test [1] and less than 10 nM in test [2].
Take `Cc1cnc(C(=O)NCC2=NOC(Cc3ccccc3)(C(=O)N[C@@H](CC(C)C)B(O)O)C2)cn1` (stereo partly drawn) [Example 151, [(1R)-1-[[5-benzyl-3-[[(5-methylpyrazin-2-carbonyl)amino]methyl]-4H-1,2-oxazol-5-carbonyl]amino]-3-methyl-butyl]boronic acid]: the IC50 in test [1] is greater than 250 nM; in test [2], less than 10 nM.
For `CC(C)C[C@H](NC(=O)C1(Cc2ccccc2)CC(CNC(=O)c2cccc(C(F)(F)F)n2)=NO1)B(O)O` (stereo partly drawn) [Example 186, ((1R)-1-(5-benzyl-3-((6-(trifluoromethyl)picolinamido)methyl)-4,5-dihydroisoxazol-5-carboxamido)-3-methylbutyl)boronic acid], the IC50 in test [1] was greater than 1000 nM; in test [2], less than 10 nM.
As to `CC(C)C[C@H](NC(=O)C1(Cc2ccccc2)CC(CNC(=O)c2cccc3c2cnn3C)=NO1)B(O)O` (stereo partly drawn) [Example 204, ((1R)-1-(5-benzyl-3-((1-methyl-1H-indazol-4-carboxamido)methyl)-4,5-dihydroisoxazol-5-carboxamido)-3-methylbutyl)boronic acid], the IC50 was greater than 500 nM in test [1] and less than 10 nM in test [2].
On the same counts, the results for `CC(C)C[C@H](NC(=O)C1(Cc2ccccc2)CC(CNC(=O)c2cnc3c(ccn3C(C)C)c2)=NO1)B(O)O` (stereo partly drawn) [Example 212, ((1R)-1-(5-benzyl-3-((1-isopropyl-1H-pyrrolo[2,3-b]pyridin-5-carboxamido)methyl)-4,5-dihydroisoxazol-5-carboxamido)-3-methylbutyl)boronic acid] are greater than 100 nM and less than 10 nM.
Regarding `Cc1cccc(CC2(C(=O)N[C@@H](CC(C)C)B(O)O)CC(CNC(=O)c3nccc4ccccc34)=NO2)c1` (stereo partly drawn) [Example 125, ((1R)-1-(3-((isoquinolin-1-carboxamido)methyl)-5-(3-methylbenzyl)-4,5-dihydroisoxazol-5-carboxamido)-3-methylbutyl)boronic acid], the values for the IC50 in test [1] and in test [2] were greater than 500 nM and less than 10 nM, respectively.
On the same counts, the results for `CC(C)C[C@H](NC(=O)C1(Cc2ccccc2)CC(CNC(=O)c2cccc(Cl)n2)=NO1)B(O)O` (some centres unmarked) [Example 308] are greater than 500 nM and less than 10 nM.
`Cc1nc(C(=O)NCC2=NOC(Cc3ccccc3)(C(=O)N[C@@H](CC(C)C)B(O)O)C2)c(Cl)s1` (stereo partly drawn) [Example 119, ((1R)-1-(5-benzyl-3-((5-chloro-2-methylthiazol-4-carboxamido)methyl)-4,5-dihydroisoxazol-5-carboxamido)-3-methylbutyl)boronic acid]: the results for the IC50 in test [1] and in test [2] were greater than 1000 nM and less than 10 nM, respectively.
As for `CC(C)C[C@H](NC(=O)C1(Cc2ccccc2)CC(CNC(=O)c2ccc3c(ccn3C(C)C)c2)=NO1)B(O)O` (stereo partly drawn) [Example 129, ((1R)-1-(5-benzyl-3-((1-isopropyl-1H-indol-5-carboxamido)methyl)-4,5-dihydroisoxazol-5-carboxamido)-3-methylbutyl)boronic acid], the values for the IC50 in test [1] and in test [2] were greater than 250 nM and less than 10 nM, respectively.
Turning to `CC(C)C[C@H](NC(=O)C1(Cc2ccccc2)CC([C@H](C)NC(=O)c2nccc3ccccc23)=NO1)B(O)O` (stereo partly drawn) [Example 145, ((1R)-1-(5-benzyl-3-((S)-1-(isoquinolin-1-carboxamido)ethyl)-4,5-dihydroisoxazol-5-carboxamido)-3-methylbutyl)boronic acid], the IC50 in test [1] was greater than 2500 nM; in test [2], less than 10 nM.
With `CC(C)C[C@H](NC(=O)C1CC([C@@H](NC(=O)c2cc(Cl)ccc2Cl)C(C)C)=NO1)B(O)O` (stereo partly drawn) [Example 72, ((1R)-1-(3-((S)-1-(2,5-dichlorobenzamido)-2-methylpropyl)-4,5-dihydroisoxazol-5-carboxamido)-3-methylbutyl)boronic acid], the IC50 in test [1] was greater than 100 nM; in test [2] it was less than 10 nM.
For `CC(C)C[C@H](NC(=O)C1(C)CC(CNC(=O)c2cc(Cl)ccc2Cl)=NO1)B(O)O` (stereo partly drawn) [Example 86, ((1R)-1-(3-((2,5-dichlorobenzamido)methyl)-5-methyl-4,5-dihydroisoxazol-5-carboxamido)-3-methylbutyl)boronic acid] the same measures were greater than 2500 nM and less than 50 nM.
Take `CCC1(C(=O)N[C@@H](CC(C)C)B(O)O)CC(CNC(=O)c2cc(Cl)ccc2Cl)=NO1` (stereo partly drawn) [Example 87, ((1R)-1-(3-((2,5-dichlorobenzamido)methyl)-5-ethyl-4,5-dihydroisoxazol-5-carboxamido)-3-methylbutyl)boronic acid]: the IC50 was greater than 2500 nM in test [1] and less than 50 nM in test [2].
As for `Cc1ccc(F)cc1C(=O)NCC1=NOC(C(=O)N[C@@H](CC(C)C)B(O)O)C1` (stereo partly drawn) [Example 82, ((1R)-1-(3-((5-fluoro-2-methylbenzamido)methyl)-4,5-dihydroisoxazol-5-carboxamido)-3-methylbutyl)boronic acid], the figures for the IC50 in test [1] and in test [2] were greater than 500 nM and less than 50 nM, respectively.
Take `CC(C)C[C@H](NC(=O)C1(Cc2ccccc2)CC([C@@H](NC(=O)c2nccc3ccccc23)C(C)C)=NO1)B(O)O` (stereo partly drawn) [Example 148, ((1R)-1-(5-benzyl-3-((S)-1-(isoquinolin-1-carboxamido)-2-methylpropyl)-4,5-dihydroisoxazol-5-carboxamido)-3-methylbutyl)boronic acid]: the IC50 in test [1] was greater than 1000 nM; in test [2] it was less than 25 nM.
With `CC(C)C[C@H](NC(=O)C1(Cc2ccccc2)CC(CNC(=O)c2ccnn2C(C)C)=NO1)B(O)O` (stereo partly drawn) [Example 171, ((1R)-1-(5-benzyl-3-((1-isopropyl-1H-pyrazol-5-carboxamido)methyl)-4,5-dihydroisoxazol-5-carboxamido)-3-methylbutyl)boronic acid], the IC50 in test [1] was greater than 500 nM; in test [2] it was less than 10 nM.
On the same counts, the results for `O=C(NCC1=NOC(Cc2ccccc2)(C(=O)N[C@@H](Cc2ccccc2)B(O)O)C1)c1ccccc1` (stereo partly drawn) [Example 292, ((1R)-1-(3-(benzamidomethyl)-5-benzyl-4,5-dihydroisoxazol-5-carboxamido)-2-phenylethyl)boronic acid] are greater than 1000 nM and less than 10 nM.
In the case of `CC(C)C[C@H](NC(=O)CNC(=O)c1cc(Cl)ccc1Cl)B(O)O` [ixazomib], inhibition in test [1] was half-maximal at 7 nM (IC50).
Turning to `CC(C)C[C@H](NC(=O)C1(Cc2ccccc2)CC(CNC(=O)c2cc(C(C)C)on2)=NO1)B(O)O` (stereo partly drawn) [Example 182, ((1R)-1-(5-benzyl-3-((5-isopropylisoxazol-3-carboxamido)methyl)-4,5-dihydroisoxazol-5-carboxamido)-3-methylbutyl)boronic acid], the IC50 in test [2] was less than 10 nM.
As for `CC(C)C[C@H](NC(=O)C1(Cc2ccccc2)CC(CNC(=O)c2nccnc2N)=NO1)B(O)O` (stereo partly drawn) [Example 161, ((1R)-1-(3-((3-aminopyrazin-2-carboxamido)methyl)-5-benzyl-4,5-dihydroisoxazol-5-carboxamido)-3-methylbutyl)boronic acid], in test [2], the IC50 was less than 10 nM.
For `Cc1nc(COCC2=NOC(Cc3ccccc3)(C(=O)N[C@@H](CC(C)C)B(O)O)C2)c(Cl)s1` (stereo partly drawn) [Example 50, ((1R)-1-(5-benzyl-3-(((5-chloro-2-methylthiazol-4-yl)methoxy)methyl)-4,5-dihydroisoxazol-5-carboxamido)-3-methylbutyl)boronic acid], in test [2], the IC50 is less than 10 nM.
